{"source": "PubChem BioAssay AID1963986", "about": "(Molecular Pharmacology Branch, DTP, NCI, 2024);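 note: spheroids exposed to compound for 7 days before viability read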;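 for viability, T/C: 100% = DMSO vehicle-treated spheroids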", "test_system": "171881-019-R-J1-PDC tumor spheroid viability", "test": "Anticancer human tumor 171881-019-R-J1-PDC patient-derived invasive breast carcinoma cell line growth inhibition [PI3K]", "conditions": "spheroids with HUVEC and MSC; for IC50: curve of first compound; for viability, T/C: stronger effect = lower value", "in_short": "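Combination activity was assessed by viability in multicellular tumor spheroids carrying HUVEC and MSC components. Agents were tested with PI3K inhibitors from a Cmax-based top dose (or 10 microM) downward in half-log increments.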"}
{"smiles": "CC(C)NCC(C(=O)N1CCN(c2ncnc3c2C(C)CC3O)CC1)c1ccc(Cl)cc1", "note": "(configuration not stated) + CC(Nc1ncnc2nc[nH]c12)c1cc2cccc(Cl)c2c(=O)n1-c1ccccc1", "values": [{"measurement": "IC50", "setting": "second compound 0.0316 µM", "result": 388, "unit": "nM"}, {"measurement": "IC50", "setting": "second compound 0.1 µM", "result": 293, "unit": "nM"}, {"measurement": "IC50", "setting": "second compound 0.316 µM", "result": 393, "unit": "nM"}, {"measurement": "IC50", "setting": "second compound 1 µM", "result": 401, "unit": "nM"}, {"measurement": "IC50", "setting": "second compound 3.16 µM", "result": 357, "unit": "nM"}, {"measurement": "IC50", "setting": "second compound 10 µM", "result": 150, "unit": "nM"}, {"measurement": "viability, T/C", "setting": "second compound 0.0316 µM, first compound 0.0316 µM", "result": 96.1, "unit": "%"}, {"measurement": "viability, T/C", "setting": "second compound 0.0316 µM, first compound 0.1 µM", "result": 83.8, "unit": "%"}, {"measurement": "viability, T/C", "setting": "second compound 0.0316 µM, first compound 0.316 µM", "result": 54.5, "unit": "%"}, {"measurement": "viability, T/C", "setting": "second compound 0.0316 µM, first compound 1 µM", "result": 27.6, "unit": "%"}, {"measurement": "viability, T/C", "setting": "second compound 0.0316 µM, first compound 3.16 µM", "result": 14.6, "unit": "%"}, {"measurement": "viability, T/C", "setting": "second compound 0.0316 µM, first compound 10 µM", "result": 11.4, "unit": "%"}, {"measurement": "viability, T/C", "setting": "second compound 0.1 µM, first compound 0.0316 µM", "result": 97.6, "unit": "%"}, {"measurement": "viability, T/C", "setting": "second compound 0.1 µM, first compound 0.1 µM", "result": 73.1, "unit": "%"}, {"measurement": "viability, T/C", "setting": "second compound 0.1 µM, first compound 0.316 µM", "result": 48.4, "unit": "%"}, {"measurement": "viability, T/C", "setting": "second compound 0.1 µM, first compound 1 µM", "result": 29.4, "unit": "%"}, {"measurement": "viability, T/C", "setting": "second compound 0.1 µM, first compound 3.16 µM", "result": 14.6, "unit": "%"}, {"measurement": "viability, T/C", "setting": "second compound 0.1 µM, first compound 10 µM", "result": 10.1, "unit": "%"}, {"measurement": "viability, T/C", "setting": "second compound 0.316 µM, first compound 0.0316 µM", "result": 80, "unit": "%"}, {"measurement": "viability, T/C", "setting": "second compound 0.316 µM, first compound 0.1 µM", "result": 82.8, "unit": "%"}, {"measurement": "viability, T/C", "setting": "second compound 0.316 µM, first compound 0.316 µM", "result": 50.9, "unit": "%"}, {"measurement": "viability, T/C", "setting": "second compound 0.316 µM, first compound 1 µM", "result": 30, "unit": "%"}, {"measurement": "viability, T/C", "setting": "second compound 0.316 µM, first compound 3.16 µM", "result": 14.4, "unit": "%"}, {"measurement": "viability, T/C", "setting": "second compound 0.316 µM, first compound 10 µM", "result": 9.02, "unit": "%"}, {"measurement": "viability, T/C", "setting": "second compound 1 µM, first compound 0.0316 µM", "result": 93.2, "unit": "%"}, {"measurement": "viability, T/C", "setting": "second compound 1 µM, first compound 0.1 µM", "result": 81, "unit": "%"}, {"measurement": "viability, T/C", "setting": "second compound 1 µM, first compound 0.316 µM", "result": 55.9, "unit": "%"}, {"measurement": "viability, T/C", "setting": "second compound 1 µM, first compound 1 µM", "result": 28, "unit": "%"}, {"measurement": "viability, T/C", "setting": "second compound 1 µM, first compound 3.16 µM", "result": 12.5, "unit": "%"}, {"measurement": "viability, T/C", "setting": "second compound 1 µM, first compound 10 µM", "result": 8.65, "unit": "%"}, {"measurement": "viability, T/C", "setting": "second compound 3.16 µM, first compound 0.0316 µM", "result": 78.6, "unit": "%"}, {"measurement": "viability, T/C", "setting": "second compound 3.16 µM, first compound 0.1 µM", "result": 75.1, "unit": "%"}, {"measurement": "viability, T/C", "setting": "second compound 3.16 µM, first compound 0.316 µM", "result": 51.2, "unit": "%"}, {"measurement": "viability, T/C", "setting": "second compound 3.16 µM, first compound 1 µM", "result": 27.1, "unit": "%"}, {"measurement": "viability, T/C", "setting": "second compound 3.16 µM, first compound 3.16 µM", "result": 11.5, "unit": "%"}, {"measurement": "viability, T/C", "setting": "second compound 3.16 µM, first compound 10 µM", "result": 8.08, "unit": "%"}, {"measurement": "viability, T/C", "setting": "second compound 10 µM, first compound 0.0316 µM", "result": 57, "unit": "%"}, {"measurement": "viability, T/C", "setting": "second compound 10 µM, first compound 0.1 µM", "result": 53.6, "unit": "%"}, {"measurement": "viability, T/C", "setting": "second compound 10 µM, first compound 0.316 µM", "result": 43, "unit": "%"}, {"measurement": "viability, T/C", "setting": "second compound 10 µM, first compound 1 µM", "result": 21.6, "unit": "%"}, {"measurement": "viability, T/C", "setting": "second compound 10 µM, first compound 3.16 µM", "result": 9.56, "unit": "%"}, {"measurement": "viability, T/C", "setting": "second compound 10 µM, first compound 10 µM", "result": 5.96, "unit": "%"}]}
